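Briefly, cells in 96-well plates were exposed to five compound concentrations for 48 h, and endpoints were estimated by linear interpolation. At the GI50, growth is halved.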 The source made the active and inactive calls. Cut-off read from the data, not from the text of the source: active = GI50 up to about 1.1 µM and inactive = higher.
Columns and labels:
Assay in all cases: NCI tumour cell line growth inhibition, 48 h
HCC 2998 = system: HCC 2998
LOX IMVI = system: LOX IMVI
PC-3 = system: PC-3
MCF7 = system: MCF7
KM12 = system: KM12
TK-10 = system: TK-10
NCI-H522 = system: NCI-H522
SN12C = system: SN12C
CAKI-1 = system: CAKI-1
NCI-H23 = system: NCI-H23
UO-31 = system: UO-31
SK-MEL-28 = system: SK-MEL-28
SK-MEL-5 = system: SK-MEL-5
NCI-H460 = system: NCI-H460
OVCAR-5 = system: OVCAR-5
UACC-257 = system: UACC-257
OVCAR-4 = system: OVCAR-4
SF-268 = system: SF-268
RXF 393 = system: RXF 393

| SMILES | GI50 (HCC 2998) | GI50 (LOX IMVI) | GI50 (PC-3) | GI50 (MCF7) | GI50 (KM12) | GI50 (TK-10) | GI50 (NCI-H522) | GI50 (SN12C) | GI50 (CAKI-1) | GI50 (NCI-H23) | GI50 (UO-31) | GI50 (SK-MEL-28) | GI50 (SK-MEL-5) | GI50 (NCI-H460) | GI50 (OVCAR-5) | GI50 (UACC-257) | GI50 (OVCAR-4) | GI50 (SF-268) | GI50 (RXF 393) |
| --- | --- | --- | --- | --- | --- | --- | --- | --- | --- | --- | --- | --- | --- | --- | --- | --- | --- | --- | --- |
| CCCc1c(O)nc2ccccc2c1O | > 100 µM (inactive) | > 100 µM (inactive) | > 100 µM (inactive) | > 100 µM (inactive) | > 100 µM (inactive) | > 100 µM (inactive) | > 100 µM (inactive) | > 100 µM (inactive) | > 100 µM (inactive) | > 100 µM (inactive) | > 100 µM (inactive) | > 100 µM (inactive) | > 100 µM (inactive) | > 100 µM (inactive) | > 100 µM (inactive) | > 100 µM (inactive) | > 100 µM (inactive) | – | – |
| CCOC(=O)C1(C(=O)OCC)CC(=O)[C@@]2(C1)OCC[C@H]1OC(=O)C[C@H]12 | > 100 µM (inactive) | > 100 µM (inactive) | > 100 µM (inactive) | > 100 µM (inactive) | > 100 µM (inactive) | > 100 µM (inactive) | > 100 µM (inactive) | > 100 µM (inactive) | > 100 µM (inactive) | > 100 µM (inactive) | > 100 µM (inactive) | > 100 µM (inactive) | > 100 µM (inactive) | > 100 µM (inactive) | > 100 µM (inactive) | > 100 µM (inactive) | > 100 µM (inactive) | > 100 µM (inactive) | – |
| CC1CCC2(CC1)N=C1CCC(C)CC1C1(CCC(C)CC1)N2 (stereo not drawn) | 69 µM (inactive) | > 100 µM (inactive) | 41.2 µM (inactive) | > 100 µM (inactive) | > 100 µM (inactive) | > 100 µM (inactive) | 69.8 µM (inactive) | – | > 100 µM (inactive) | 95.7 µM (inactive) | > 100 µM (inactive) | > 100 µM (inactive) | 29.7 µM (inactive) | > 100 µM (inactive) | > 100 µM (inactive) | 83.6 µM (inactive) | > 100 µM (inactive) | – | > 100 µM (inactive) |
| COC(=O)c1ccc(/C=C2\Oc3cc(O)ccc3C2=O)cc1 | > 100 µM (inactive) | – | 91.4 µM (inactive) | 38.5 µM (inactive) | 49.3 µM (inactive) | 53 µM (inactive) | 20 µM (inactive) | 53.8 µM (inactive) | 68.5 µM (inactive) | 42.3 µM (inactive) | 46.3 µM (inactive) | 72.8 µM (inactive) | 67 µM (inactive) | > 100 µM (inactive) | – | > 100 µM (inactive) | 62.8 µM (inactive) | 66.1 µM (inactive) | 27.9 µM (inactive) |
| COc1ccc(-c2c(-c3ccccc3)c(C)c3ccccn23)cc1 | > 100 µM (inactive) | 83.6 µM (inactive) | 84.3 µM (inactive) | 57.7 µM (inactive) | 26.3 µM (inactive) | > 100 µM (inactive) | 57.7 µM (inactive) | > 100 µM (inactive) | > 100 µM (inactive) | > 100 µM (inactive) | > 100 µM (inactive) | 79.8 µM (inactive) | 77.8 µM (inactive) | 59.2 µM (inactive) | > 100 µM (inactive) | 49.9 µM (inactive) | > 100 µM (inactive) | – | – |
| O=c1[nH]nc(Nc2ccc(Cl)cc2)c2nnn(-c3ccc([N+](=O)[O-])cc3)c12 | 15.2 µM (inactive) | 14.5 µM (inactive) | 18.3 µM (inactive) | 16.6 µM (inactive) | 26.4 µM (inactive) | 24.7 µM (inactive) | 4.47 µM (inactive) | 26.9 µM (inactive) | 39.5 µM (inactive) | 8.59 µM (inactive) | – | – | 10.8 µM (inactive) | 30.6 µM (inactive) | > 100 µM (inactive) | 34.8 µM (inactive) | 23.8 µM (inactive) | 24.3 µM (inactive) | – |
| COc1ccc2c(c1)-c1[nH]c3ccc(OC)cc3c1CC2 | 15.6 µM (inactive) | 15.2 µM (inactive) | 11.4 µM (inactive) | 24.9 µM (inactive) | 4.86 µM (inactive) | 16.8 µM (inactive) | 4.55 µM (inactive) | 14.8 µM (inactive) | 18.8 µM (inactive) | 12.9 µM (inactive) | 15.2 µM (inactive) | 16.4 µM (inactive) | 13.1 µM (inactive) | 16.3 µM (inactive) | 14.5 µM (inactive) | 17.7 µM (inactive) | 14.9 µM (inactive) | 14.1 µM (inactive) | – |
| COc1cccc2c1OC1c3ccccc3OCC1C2 (stereo not drawn) | > 100 µM (inactive) | > 100 µM (inactive) | 82.6 µM (inactive) | > 100 µM (inactive) | > 100 µM (inactive) | 43.9 µM (inactive) | > 10 µM (inactive) | > 100 µM (inactive) | > 100 µM (inactive) | > 100 µM (inactive) | 48 µM (inactive) | – | 35.7 µM (inactive) | – | > 100 µM (inactive) | 83.6 µM (inactive) | – | > 100 µM (inactive) | – |
| COC(=O)CC(C)(N[S+]([O-])c1ccc(C)cc1)c1ccccc1 (stereo not drawn) | > 100 µM (inactive) | > 100 µM (inactive) | > 100 µM (inactive) | > 100 µM (inactive) | > 100 µM (inactive) | > 100 µM (inactive) | > 100 µM (inactive) | > 100 µM (inactive) | – | > 100 µM (inactive) | > 100 µM (inactive) | > 100 µM (inactive) | > 100 µM (inactive) | > 100 µM (inactive) | > 100 µM (inactive) | > 100 µM (inactive) | > 100 µM (inactive) | > 100 µM (inactive) | > 100 µM (inactive) |
| COP(=O)(OC)C(O)/C=C(\Cl)c1ccc(Cl)cc1 (stereo not drawn) | – | 19.6 µM (inactive) | 31.6 µM (inactive) | 96.4 µM (inactive) | > 100 µM (inactive) | > 100 µM (inactive) | 49.1 µM (inactive) | 40.7 µM (inactive) | 69.2 µM (inactive) | 21.2 µM (inactive) | 71 µM (inactive) | > 100 µM (inactive) | 23.7 µM (inactive) | > 100 µM (inactive) | > 100 µM (inactive) | 28.4 µM (inactive) | 37.2 µM (inactive) | 65.2 µM (inactive) | 78.2 µM (inactive) |
| O=C(O)CC(Sc1ccccc1)c1ccccc1 (stereo not drawn) | – | > 100 µM (inactive) | > 100 µM (inactive) | > 100 µM (inactive) | > 100 µM (inactive) | > 100 µM (inactive) | > 100 µM (inactive) | > 100 µM (inactive) | > 100 µM (inactive) | > 100 µM (inactive) | > 100 µM (inactive) | > 100 µM (inactive) | > 100 µM (inactive) | – | > 100 µM (inactive) | – | > 100 µM (inactive) | > 100 µM (inactive) | > 100 µM (inactive) |
| COc1ccc(C2C3CCc4ccccc4C3=NN2S(=O)(=O)c2cccc(C(=O)O)c2OC)cc1 (stereo not drawn) | – | 12.7 µM (inactive) | 9.02 µM (inactive) | 2.19 µM (inactive) | 2.48 µM (inactive) | 22.9 µM (inactive) | 3.19 µM (inactive) | 27.3 µM (inactive) | 22.5 µM (inactive) | 52.4 µM (inactive) | 19.4 µM (inactive) | – | 6.62 µM (inactive) | 5.66 µM (inactive) | 92.9 µM (inactive) | – | 19.4 µM (inactive) | 14 µM (inactive) | 13.1 µM (inactive) |
| O=C1c2ccccc2C(=O)C2NC(CCCCCSSCCCCCC3=NC4C(=O)c5ccccc5C(=O)C4N3)=NC12 (stereo not drawn) | – | > 100 µM (inactive) | > 100 µM (inactive) | > 100 µM (inactive) | 80.9 µM (inactive) | 68.2 µM (inactive) | 15 µM (inactive) | – | 6.47 µM (inactive) | 40.2 µM (inactive) | 7.74 µM (inactive) | > 100 µM (inactive) | 19.9 µM (inactive) | > 100 µM (inactive) | > 100 µM (inactive) | 64.3 µM (inactive) | > 100 µM (inactive) | 27.3 µM (inactive) | 22.3 µM (inactive) |
| CCOC(=O)c1ccc(-n2nnc(C(N)=O)c2O)cc1 | > 100 µM (inactive) | – | > 100 µM (inactive) | > 100 µM (inactive) | > 100 µM (inactive) | > 100 µM (inactive) | > 100 µM (inactive) | > 100 µM (inactive) | > 100 µM (inactive) | > 100 µM (inactive) | > 100 µM (inactive) | > 100 µM (inactive) | > 100 µM (inactive) | > 100 µM (inactive) | > 100 µM (inactive) | > 100 µM (inactive) | > 100 µM (inactive) | > 100 µM (inactive) | > 100 µM (inactive) |
| CC(C)CC1c2[nH]c3ccccc3c2C[C@H]2C(=O)NC(COC(C)(C)C)C(=O)N12 (stereo partly drawn) | – | 17.3 µM (inactive) | 22 µM (inactive) | 31.6 µM (inactive) | 24.1 µM (inactive) | 23 µM (inactive) | 16.4 µM (inactive) | 21.2 µM (inactive) | 28.2 µM (inactive) | 28.7 µM (inactive) | 32.1 µM (inactive) | 31.5 µM (inactive) | 21.8 µM (inactive) | – | 23.6 µM (inactive) | 19 µM (inactive) | 30.5 µM (inactive) | 23.6 µM (inactive) | 14.7 µM (inactive) |
| Oc1cccc2c1[nH]c1c(C3=C[C@@]4(O)CC/C=C\CCCCN5CC[C@@H]3[C@]3(CC6/C=C\CCCCN6[C@H]34)C5)nccc12 (stereo partly drawn) | 0.384 µM (active) | 0.736 µM (active) | 0.738 µM (active) | 0.7 µM (active) | 1.55 µM (inactive) | 1.9 µM (inactive) | 1.01 µM (active) | 0.891 µM (active) | 1.67 µM (inactive) | 0.912 µM (active) | 1.44 µM (inactive) | 1.66 µM (inactive) | 1.59 µM (inactive) | 0.65 µM (active) | 1.07 µM (active) | 1.68 µM (inactive) | 0.679 µM (active) | 1.58 µM (inactive) | – |

From ChEMBL document CHEMBL1201862, “PubChem BioAssay data set” (2004)
